# Reference: patent US10434135B2, “Pharmaceutical composition for preventing or treating arthritis” (Samsung Life Public Welfare Foundation, priority 2015, dated 2019)
# Ends that are not written are not given here.
# Conditions: rat, in vivo
# Text: The stained samples were examined under a fluorescence microscope (Eclipse TE2000U) at 200× magnification and photographed from 4 randomly selected areas. Then, the images with specific expressions were processed using the imageJ program and then quantified.
sequence,measurement,value
KLDLKLDLKLDLRPKPQQFFGLM [KLD12-SP],substance P retained in the knee joints,retained in the knee joints of rats
